Target: native receptor, mGluR5d (Rattus norvegicus, UniProt P31424)
Assay: Antagonist activity on the native receptor mGluR5d
Assay type: cell-based
Description: Primary astrocyte cultures were prepared from 3-5 day old Sprague-Dawley rat pups using a modification of Miller (Miller et al, J. Neuroscience, 15(9): 6103-6109, 1995). In brief, primary cultures were plated on poly-L lysine coated flasks in Dulbecco's modified Eagle's medium (DMEM) containing fetal calf serum (FCS). After 6 days, cell cultures were shaken over night at 280 rpm, then transferred to astrocyte-defined media (ADM) containing growth factors that up-regulate the expression of mGluR5 (Miller et al., 1995). […] For FLIPR analysis, cells were seeded on poly-D lysine coated clear bottom 96-well plates with black sides and analysis of [Ca^2+]i mobilization was performed 3 days following the growth factor up-regulation. Cell cultures in the 96-well plates were loaded with a 4 µM solution of acetoxymethyl ester form of the fluorescent calcium indicator fluo-3 (Molecular Probes, Eugene, Oregon) in 0.01 % pluronic. All assays were performed in a buffer containing 127 mM NaCl, 5 mM KCl, 2 mM MgCl2, 0.7 mM NaH2PO4, 2 mM CaCl2, 0.422 mg/ml NaHCO3, 2.4 mg/ml HEPES, 1.8 mg/ml glucose and 1 mg/ml BSA Fraction IV (pH 7.4). […] After each addition the fluorescence signal was sampled 50 times at 1 second intervals followed by 3 samples at 5 second intervals. Responses were measured as the peak height of the response within the sample period. […]

native receptor, mGluR5d, sequence (P31424 21-1203): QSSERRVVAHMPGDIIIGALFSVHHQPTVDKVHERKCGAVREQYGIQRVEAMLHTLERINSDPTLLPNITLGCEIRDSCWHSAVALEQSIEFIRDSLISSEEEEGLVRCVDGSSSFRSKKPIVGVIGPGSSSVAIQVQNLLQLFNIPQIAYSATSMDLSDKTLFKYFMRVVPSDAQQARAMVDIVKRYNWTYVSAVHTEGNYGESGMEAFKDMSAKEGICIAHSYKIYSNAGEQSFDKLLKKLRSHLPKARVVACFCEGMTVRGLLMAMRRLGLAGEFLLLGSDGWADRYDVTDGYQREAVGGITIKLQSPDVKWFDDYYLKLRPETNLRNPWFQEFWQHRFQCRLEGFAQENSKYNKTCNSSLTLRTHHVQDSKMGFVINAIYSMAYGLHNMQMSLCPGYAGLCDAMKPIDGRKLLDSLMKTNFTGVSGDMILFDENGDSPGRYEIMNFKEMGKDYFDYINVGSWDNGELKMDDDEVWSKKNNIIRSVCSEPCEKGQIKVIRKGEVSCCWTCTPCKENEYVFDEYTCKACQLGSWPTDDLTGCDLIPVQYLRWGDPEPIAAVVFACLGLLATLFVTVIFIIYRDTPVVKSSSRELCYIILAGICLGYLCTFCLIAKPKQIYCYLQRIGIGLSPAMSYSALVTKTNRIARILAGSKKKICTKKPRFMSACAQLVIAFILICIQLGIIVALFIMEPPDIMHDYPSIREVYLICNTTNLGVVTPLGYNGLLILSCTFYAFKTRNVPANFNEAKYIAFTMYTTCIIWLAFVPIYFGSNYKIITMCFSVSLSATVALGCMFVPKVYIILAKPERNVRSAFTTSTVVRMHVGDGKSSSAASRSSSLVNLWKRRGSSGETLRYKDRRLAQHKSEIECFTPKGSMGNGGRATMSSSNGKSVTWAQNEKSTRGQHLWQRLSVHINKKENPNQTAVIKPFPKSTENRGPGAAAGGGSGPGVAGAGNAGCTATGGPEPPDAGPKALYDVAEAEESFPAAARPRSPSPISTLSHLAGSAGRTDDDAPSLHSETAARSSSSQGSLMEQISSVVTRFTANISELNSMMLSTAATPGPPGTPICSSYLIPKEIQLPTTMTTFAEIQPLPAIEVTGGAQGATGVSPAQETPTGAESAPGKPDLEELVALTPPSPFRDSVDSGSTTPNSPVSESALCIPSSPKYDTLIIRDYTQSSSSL

| SMILES | IC50 [µM] |
| --- | --- |
| N#Cc1cccc(-c2nc(-c3ccccn3)no2)c1 [B21, 3-(2-pyridyl)-5-(3-cyanophenyl)-1,2,4-oxadiazole] | 0.121 |
| N#Cc1cccc(-c2nc(-c3ccccn3)co2)c1 [B52, 2-[3-cyanophenyl]-4-[pyridin-2-yl]-1,3-oxazole] | 0.074 |
